Source: US6476199B1, “Reagents for lysergic acid diethylamide immunoassay” (priority 1996, dated 2002)

Tests used:
anti-LSD antibody G648 [1] = test: ELISA microtiter plate assay, plate coated with LSD-BSA label-conjugate 14, antiserum G648; assay type: binding, goats; settings: for G648(OD): conjugate 14 coating, 405 nm, FIG. 1
Protocol: (§1) The novel reagents were tested in an ELISA immunoassay as described in Example 27. The N-indole derived LSD-BSA label-conjugate 14 containing the biphenyl linker was used to compete against known concentrations of LSD for binding to the anti-LSD antibodies, G648 and G651, raised against the LSD immunogen 8.

anti-LSD antibody G651 [2] = test: ELISA microtiter plate assay, plate coated with LSD-BSA label-conjugate 21, antiserum G651; settings: conjugate 21 coating, 405 nm, FIG. 3
anti-LSD antibody G648 [3] = test: ELISA microtiter plate assay, plate coated with LSD-BSA label-conjugate 21, antiserum G648; settings: conjugate 21 coating, 405 nm, FIG. 3
[4] = light; pH above 7 epimerization at C-8 to iso-LSD; prolonged light oxidation at C-9; cited from earlier work
anti-LSD antibody G651 [5] = test: ELISA microtiter plate assay, plate coated with LSD-BSA label-conjugate 14, antiserum G651; assay type: binding, goats; settings: for G651(OD): conjugate 14 coating, 405 nm
Protocol: as §1
FIG. 2 provides the curve generated from an ELISA microtiter plate assay, as described in Example 27, using nor-LSD as the standard.

LSD antibodies = settings: prior-art antibodies, Van Vunakis 1971; cited from earlier work

With CCN(CC)C(=O)[C@@H]1C=C2c3cccc4[nH]cc(c34)C[C@H]2N(C)C1 [LSD, D-lysergic acid diethyl amide] the “G648(OD)” value (anti-LSD antibody G648 [1]; 0.5 ng/mL free LSD) was 0.8 OD, the “G648(OD)” value (anti-LSD antibody G648 [1]; 1 ng/mL free LSD) was 0.33 OD and the “G648(OD)” value (anti-LSD antibody G648 [1]; 5 ng/mL free LSD) was 0.25 OD. The “G651(OD)” value (anti-LSD antibody G651 [2]; 0.5 ng/mL free LSD) was 0.5 OD, the “G651(OD)” value (anti-LSD antibody G651 [2]; 1 ng/mL free LSD) was 0.33 OD and the “G651(OD)” value (anti-LSD antibody G651 [2]; 5 ng/mL free LSD) was 0.19 OD. For the same compound, the “G648(OD)” value (anti-LSD antibody G648 [3]; 0.5 ng/mL free LSD) was 0.52 OD, the “G648(OD)” value (anti-LSD antibody G648 [3]; 1 ng/mL free LSD) was 0.37 OD and the “G648(OD)” value (anti-LSD antibody G648 [3]; 5 ng/mL free LSD) was 0.17 OD. For the same compound, the stability [4] was “sensitive to light and alkaline pH”, the “G651(OD)” value (anti-LSD antibody G651 [5]; 0.5 ng/mL free LSD, FIG. 1) was 1.05 OD and the “G651(OD)” value (anti-LSD antibody G651 [5]; 1 ng/mL free LSD, FIG. 1) was 0.75 OD. The “G651(OD)” value (anti-LSD antibody G651 [5]; 5 ng/mL free LSD, FIG. 1) was 0.39 OD and the “G651(OD)” value (anti-LSD antibody G651 [5]; 5 ng/mL free drug, FIG. 2) was 0.63 OD.

With CCN(CC)C(=O)[C@@H]1C=C2c3cccc4[nH]cc(c34)C[C@H]2NC1 [Nor-LSD, 8β-9,10-didehydro-N,N-diethylergoline-8-carboxamide] the “binding of antibody G648 raised against immunogen 8” value (anti-LSD antibody G648 [1]; in words) was “bind”, the “G651(OD)” value (anti-LSD antibody G651 [5]; 1 ng/mL free drug, FIG. 2) was 1.2 OD and the “G651(OD)” value (anti-LSD antibody G651 [5]; 5 ng/mL free drug, FIG. 2) was 0.88 OD. The “binding of antibody G651 raised against immunogen 8” value (anti-LSD antibody G651 [5]; in words) was “bind”.

For C[C@@H](CO)NC(=O)[C@@H]1C=C2c3cccc4[nH]cc(c34)C[C@H]2N(C)C1 [ergonovine], the “competition for binding to the LSD antibodies (cross-reactivity)” value (“competition for binding” for short) (LSD antibodies) is given as “compete for binding”.

In the case of CC(C)C[C@H]1C(=O)N2CCC[C@H]2[C@]2(O)O[C@@](C)(NC(=O)[C@@H]3C=C4c5cccc6[nH]cc(c56)C[C@H]4N(C)C3)C(=O)N12 [ergosine], the “competition for binding” value (LSD antibodies) is given as “compete for binding”.

For CN1C[C@H](C(=O)N[C@]2(C)O[C@@]3(O)[C@@H]4CCCN4C(=O)[C@H](Cc4ccccc4)N3C2=O)C=C2c3cccc4[nH]cc(c34)C[C@H]21 [ergotamine], the “competition for binding” value (LSD antibodies) is given as “compete for binding”.

For CC[C@@H](CO)NC(=O)[C@@H]1C=C2c3cccc4c3c(cn4C)C[C@H]2N(C)C1 [methysergide], the “competition for binding” value (LSD antibodies) is listed as “compete for binding”.
